Laboratory results reported in US20100273656A1, “COMPOSITION AND METHOD FOR SELECTIVE HERBICIDE” (priority 2002, published 2010).

What was measured:
dandelions = test: Example 2 field test of FeEDDS and FeHEDTA at pH 3 and 7, dandelion; format: in vivo, Taraxacum officinale
Protocol: (§1) The following non-limiting examples serve to further describe the invention. Unless otherwise specified, all of the iron solutions were made using the same molar concentration of iron ion as chelating agent. All of the outside tests were done on areas of mixed grass and dandelions that were at least 2 months old. For the greenhouse tests, dandelions were grown in a commercial greenhouse mix, using supplemental lighting and heating. Each plant was grown in a 2¼ inch pot to a minimum diameter of 20 cm. All of the solutions were sprayed onto the plants at a rate of 100 ml/m^2. The ferrous sulfate formulations that were used in examples 1, 2, 8 and 9 contained 1% iron (180 mM), 18 mM EDTA, 1% citric acid and 0.5% urea. In all of the examples, the amount of iron is identified in brackets as the percent iron on a weight basis.
(§2) All plant damage was assessed using a qualitative rating scale from 0 to 9.
The FeEDDS and FeHEDTA solutions contained 0.2% Fe^+3 (35.8 mM). The ferrous sulfate contained 1% Fe^+2 (179.1 mM). The solutions were sprayed at a rate of 0.1 L/m^2 onto 2 plots of 0.5 m^2 of mixed grass and dandelions. Observations were made 4 days after spraying.

dandelion = test: Example 21 Fe chelates with Killex, dandelion; format: in vivo, Taraxacum officinale; details: A29 = 29 days after treatment
Protocol: (§3) Plants were fertilized with an all purpose water-soluble fertilizer mix of 20-20-20 (N-P-K; Plant-Prod®) as needed. All broadleaf weeds were grown individually in a 2¼-inch pot until they were a suitable size for herbicide tests (actual weed size is reported in examples below). Perennial ryegrass was also grown in 2¼-inch pots, however many grass seeds were sown in the pot to simulate a small section of turf. Grass plants were continually trimmed to a height of 4 cm, simulating that of a homeowner's lawn. For field tests, plots ¼ m^2 in size were marked out in areas containing the targeted broadleaf weed species growing in turf grass. Plots were continually mowed to simulate a homeowner's lawn. […] In all of the examples, the amounts of the various herbicide components are identified as a percent on a weight basis.
Killex® (Scotts Canada, Ltd., Ontario, Canada) is a commonly used selective lawn herbicide and was used as the commercial herbicide for herbicide combinations. The labeled dilution and application rates for Killex® are 6 ml into 1 L of solution (0.6%) applied at 200 ml/m^2.
(§4) All visual plant damage assessments were made using a quantitative rating scale; percent control relative to the untreated check (0=no effect; 100=plant death).
Materials and Methods: This trial was conducted in the greenhouse. […] Phytotoxicity (%) was assessed 29 days after treatment (A29).

grass [1] = test: Example 1 field test of iron chelates, grass damage; format: in vivo; details: in vivo
Protocol: as §1, §2
All of the iron chelates were sprayed once at 0.2% Fe^+3 (35.8 mM), at a volume of 100 ml/m^2 onto 0.5 m^2 areas of mixed grass and dandelions. The spraying of the test was followed by 2 days of rain-free weather. Observations were made 5 days after spraying.

[2] = system: dandelion (Taraxacum officinale); test: Example 12 FeHEDTA field test, dandelion; format: in vivo; details: for Survival of Dandelion Plants (%): day 7/day 0
Protocol: This test evaluated FeHEDTA with 0.15% and 0.2% Fe for controlling the chickweed scarlet pimpernel (Anagallis arvensis) and dandelion (Taraxacum officinale). The solution contained 1.3 times the molar amount of chelating agent as iron. Field areas of well established chickweed and dandelion (0.5 m^2) were sprayed at a rate of 100 ml/m^2.

Park Lawn = test: Example 22 field test FeIDS and/or FeHEDTA with Killex, Park Lawn; format: in vivo; details: A7 = 7 days after treatment
Protocol: as §3, with “basis. […]” for “basis.”
as §4
(§5) Materials and Methods: Plots ¼ m^2 in size were marked out in white clover and Park Lawn (turfgrass mixture comprising of 65% perennial ryegrass, 25% chewings/creeping red fescue and 10% Kentucky bluegrass) area in the field. […] Phytotoxicity (%) was assessed on 7 days after treatment (A7).

[3] = system: hairy cat's ear (Hypochoeris radicata); test: Example 13 field test, hairy cat's ear; format: in vivo
Protocol: (§6) Killex® (Green Cross, Ontario, Canada) is a commonly used selective lawn herbicide and was included in several field tests as a standard. Killex contains 2,4-D (9.5%), mecoprop (5%) and dicamba (0.9%). The product was diluted 6 ml into 1 L of water solution and applied at rate of 200 ml/m^2, as per label instructions.
(§7) This test evaluated FeEDDS (0.4% Fe^+3) and FeHEDTA (0.2% Fe^+3) for controlling the weed hairy cat's ear (Hypochoeris radicata), also known as “false dandelion”, grown in areas of mixed grass and Hypochoeris. The iron solutions were sprayed at a rate of 100 ml/m^2 to 1.0 m^2 plots. The iron treatments were resprayed after 7 and 14 days. Killex (Solaris ON, Canada) was diluted and applied once as per label instructions of 6 ml /L applied at 200 ml/m^2.

grass [4] = test: Example 13 field test, grass; format: in vivo
Protocol: as §6, §7

white clover = test: Example 22 field test FeIDS and/or FeHEDTA with Killex, white clover; format: in vivo; details: A7 = 7 days after treatment
Protocol: as §3, with “basis. […]” for “basis.”
as §4, §5

## O=C([O-])CN(CCO)CCN(CC(=O)[O-])CC(=O)[O-].[Fe+3] [FeHEDTA]
dandelions; solution pH 2.6-3.0, 0.1 L/m^2, 4 days after spraying
  Dandelion Damage (0 to 9): 7.0 0 to 9
dandelions; solution pH 7.0-7.1, 0.1 L/m^2, 4 days after spraying
  Dandelion Damage (0 to 9): 7.5 0 to 9
dandelion
  Phytotoxicity (%) against dandelion: 24%
Grass [1]
  Grass Damage (0 to 9): 0
[2]; 7 days after spraying, listed as FeHEDTA (0.15% Fe)
  Dandelion Plants (#/0.5 m^2): 19 #/0.5 m^2
[2]; 7 days after spraying, listed as FeHEDTA (0.20% Fe)
  Dandelion Plants (#/0.5 m^2): 24 #/0.5 m^2
[2]; Example 12, text
  numbers of dandelions, in words: significantly reduced
[2]; day 0, listed as FeHEDTA (0.15% Fe)
  Dandelion Plants (#/0.5 m^2): 57 #/0.5 m^2
[2]; day 0, listed as FeHEDTA (0.20% Fe)
  Dandelion Plants (#/0.5 m^2): 84 #/0.5 m^2
[2]; listed as FeHEDTA (0.15% Fe)
  Survival of Dandelion Plants (%): 33%
[2]; listed as FeHEDTA (0.20% Fe)
  Survival of Dandelion Plants (%): 29%
Park Lawn
  Phytotoxicity (%) on Park Lawn: 3%
[3]; day 0
  Area Covered by Hairy Cat's Ear (%): 65%
  Relative Cat's Ear Area (Start = 100%): 100%
[3]; day 6
  Area Covered by Hairy Cat's Ear (%): 20%
  Relative Cat's Ear Area (Start = 100%): 31%
[3]; day 8
  Area Covered by Hairy Cat's Ear (%): 20%
  Relative Cat's Ear Area (Start = 100%): 31%
[3]; day 14
  Area Covered by Hairy Cat's Ear (%): 5%
[3]; day 15
  Relative Cat's Ear Area (Start = 100%): 8%
[3]; day 18
  Area Covered by Hairy Cat's Ear (%): 0%
  Relative Cat's Ear Area (Start = 100%): 0%
Grass [4]; day 0
  Area Covered by Hairy Grass (%): 15%
  Relative Grass Area (Start = 100%): 100%
Grass [4]; day 6
  Area Covered by Hairy Grass (%): 47%
  Relative Grass Area (Start = 100%): 313%
Grass [4]; day 8
  Area Covered by Hairy Grass (%): 40%
  Relative Grass Area (Start = 100%): 267%
Grass [4]; day 15
  Area Covered by Hairy Grass (%): 50%
  Relative Grass Area (Start = 100%): 333%
Grass [4]; day 18
  Area Covered by Hairy Grass (%): 46%
  Relative Grass Area (Start = 100%): 307%
White clover
  Phytotoxicity (%) against white clover: 48%
